According to US7754677B2, “Composition and method for reducing diarrhea in a mammal” (Hill's Pet Nutrition, Inc., priority 2003, dated 2010):

Experiments:
[1] = system: T cell lymphocyte; test: T-cell proliferation assay in response to ConA mitogen, blood of dogs fed glutamine supplemented diet; assay type: in vivo, Beagle dogs; conditions: for T cell proliferation (log10 cpm): ConA mitogen, data collapsed across ConA doses
Procedure: In a further experiment, the efficacy of glutamine as a immune-modulator was examined. 20 Beagle dogs were randomly allocated into 4 groups receiving either basic diet or basic diet supplemented with 1%, 2%, or 4% glutamine. Blood samples were drawn in heparinized tubes from animals 2 hrs after their last feeding on day 1 and 16. Samples were prepared for immune measurement. (T cell proliferation assay).
T-cell proliferation assay. Peripheral blood leukocytes (PBL) in each blood sample were counted using Nova Celltrak II (Beckman Coulter Corp., Fla.). Blood was diluted (1:20) with supplemented media. Diluted blood was plated, in triplicate, in 96 well cell culture plates with the following mitogens diluted in supplemented media: Concanavalin A (0.5 μg/ml, 2.5 μg/ml. Plates were incubated in a humidified incubator containing 7% CO2 at 37° C. for 72 hrs. Cellular DNA was […]. Cellular DNA was harvested on glass fiber paper using a cell harvester (Skatron Instruments Inc., Va.) and suspended with 1.5 ml scintillation cocktail. [^3H]thymidine uptake was quantified as counts per minutes (CPM) using TriCarb 2100TR Liquid Scintillation Analyzer (Packard BioScience Company, Ill.). Counts were normalized to CPM/10,000 cells to account for variation in PBL concentrations.
Concanvalin A (Con A) is a polyclonal T-cell mitogen. […] Thus, the data were collapsed across the different doses of Con A to show the proliferative response of lymphocytes dependent on percentage of glutamine supplemented in the diet.

[2] = Postprandial plasma glutamine dose response study in dogs; assay type: in vivo
Procedure: In one experiment, a source of glutamine was tested to see if it was bioavailable and able to deliver adequate glutamine to the intestinal cells. The source of glutamine was a wheat hydrolysate with an enrichment of 30% glutamine. A dose response study was carried out in 6 dogs to see if increasing levels of the glutamine source (0, 0.5, 1.0, 2% glutamine content) was detected in the plasma after feeding the diet.

Question: Which “Lymphocyte proliferation, result in words” value ([1]; 1% glutamine in diet, versus control group P<0.05) does the source give for NC(=O)CC[C@H](N)C(=O)O [glutamine] here?
Answer: maximum lymphocyte proliferation

Question: What about the “T cell proliferation (log10 cpm)” value ([1]; 1% supplemental glutamine in diet) of the same molecule?
Answer: 5 log10 cpm

Question: What about the “T-lymphocytes proliferation, result in words” value ([1]; 1-2% glutamine in diet) of the same molecule?
Answer: enhances overall T-lymphocytes proliferation

Question: And the “T cell proliferation (log10 cpm)” value ([1]; 2% supplemental glutamine in diet)?
Answer: 4.8 log10 cpm

Question: What about the “T-lymphocytes proliferation, result in words” value ([1]; 4% glutamine in diet) of the same molecule?
Answer: not additionally beneficial

Question: And the “T cell proliferation (log10 cpm)” value ([1]; 4% supplemental glutamine in diet)?
Answer: 4.5 log10 cpm

Question: And the “% Change in plasma glutamine from control” value (“% Change in plasma glutamine” for short) ([2]; 0.5% supplemented glutamine in food)?
Answer: 3%

Question: And the “% Change in plasma glutamine” value ([2]; 1.0% supplemented glutamine in food)?
Answer: 10%

Question: What about the “% Change in plasma glutamine” value ([2]; 2.0% supplemented glutamine in food) of the same molecule?
Answer: 15%
